Data: ChEMBL document CHEMBL1146747, “Novel lopinavir analogues incorporating heterocyclic replacements of six-member cyclic urea--synthesis and structure-activity relationships” (Bioorg Med Chem Lett, 2004)

How the values were obtained:
[1] = test system: MT4; assay: Tested for cytopathic effect of HIVIIIB in MT-4 cells in presence of 50% human serum; assay type: functional, cell-based
[2] = target: Human immunodeficiency virus type 1 protease (Human immunodeficiency virus 1) (UniProt Q72874); assay: Inhibitory activity (0.5 nM) against Protease

SMILES	EC50 [1]	inhibition [2]
Cc1cccc(C)c1OCC(=O)N[C@@H](Cc1ccccc1)[C@@H](O)C[C@H](Cc1ccccc1)NC(=O)[C@H](C(C)C)N1CCNC1=O	70 nM	93%
Cc1cccc(C)c1OCC(=O)N[C@@H](Cc1ccccc1)[C@@H](O)C[C@H](Cc1ccccc1)NC(=O)[C@H](C(C)C)N1CCN=C1S	3800 nM	63%
Cc1cccc(C)c1OCC(=O)N[C@@H](Cc1ccccc1)[C@@H](O)C[C@H](Cc1ccccc1)NC(=O)[C@H](C(C)C)N1C(=O)CCC1=O	2510 nM	58%
Cc1cccc(C)c1OCC(=O)N[C@@H](Cc1ccccc1)[C@@H](O)C[C@H](Cc1ccccc1)NC(=O)[C@H](C(C)C)N1CCCOC1=O	270 nM	85%
Cc1cccc(C)c1OCC(=O)N[C@@H](Cc1ccccc1)[C@@H](O)C[C@H](Cc1ccccc1)NC(=O)[C@H](C(C)C)N1CCOC1=O	110 nM	87%
Cc1cccc(C)c1OCC(=O)N[C@@H](Cc1ccccc1)[C@@H](O)C[C@H](Cc1ccccc1)NC(=O)[C@H](C(C)C)N1CCC(=O)NC1=O	140 nM	100%
Cc1cccc(C)c1OCC(=O)N[C@@H](Cc1ccccc1)[C@@H](O)C[C@H](Cc1ccccc1)NC(=O)[C@H](C(C)C)N1CCCNC1=O [LOPINAVIR]	100 nM	
Cc1cccc(C)c1OCC(=O)N[C@@H](Cc1ccccc1)[C@@H](O)C[C@H](Cc1ccccc1)NC(=O)[C@H](C(C)C)N1CCCN(C)C1=O	1060 nM	80%
Cc1cccc(C)c1OCC(=O)N[C@@H](Cc1ccccc1)[C@@H](O)C[C@H](Cc1ccccc1)NC(=O)[C@H](C(C)C)N1CCCC1=O	310 nM	87%
Cc1cccc(C)c1OCC(=O)N[C@@H](Cc1ccccc1)[C@@H](O)C[C@H](Cc1ccccc1)NC(=O)[C@H](C(C)C)N1CCNC(=O)C1=O	3050 nM	73%
